Article PMC4019989 (Clinical cancer research : an official journal of the …, 2009)

System: patients with relapsed or refractory hematologic malignancies
Test: Phase 1 dose escalation: adverse events, DLT, MTD
Assay type: in vivo
[1] = All patients (N = 29), all dose cohorts

CC(C)C[C@H](NC(=O)[C@H](CCc1ccccc1)NC(=O)CN1CCOCC1)C(=O)N[C@@H](Cc1ccccc1)C(=O)N[C@@H](CC(C)C)C(=O)[C@@]1(C)CO1 [carfilzomib] was tested, and the “Grade 3 and 4 adverse events: ALT increased, Grades 3-4” value (All patients (N = 29), Table 4) was 1 (3) n (%), the “Grade 3 and 4 adverse events: AST increased, Grade 3” value (All patients (N = 29), Table 4) was 1 (3) n (%) and the “Grade 3 and 4 adverse events: AST increased, Grade 4” value (All patients (N = 29), Table 4) was 0 (0) n (%). For the same compound, the “Grade 3 and 4 adverse events: AST increased, Grades 3-4” value (All patients (N = 29), Table 4) was 1 (3) n (%), the “Grade 3 and 4 adverse events: Abdominal pain, Grade 3” value (All patients (N = 29), Table 4) was 1 (3) n (%) and the “Grade 3 and 4 adverse events: Abdominal pain, Grade 4” value (All patients (N = 29), Table 4) was 0 (0) n (%). For the same compound, the “Grade 3 and 4 adverse events: Abdominal pain, Grades 3-4” value (All patients (N = 29), Table 4) was 1 (3) n (%), the “Grade 3 and 4 adverse events: Anemia, Grades 3-4” value (All patients (N = 29), Table 4) was 1 (3) n (%) and the “Grade 3 and 4 adverse events: Any, Grade 3” value (All patients (N = 29), Table 4) was 11 (38) n (%). For the same compound, the “Grade 3 and 4 adverse events: Any, Grades 3-4” value (All patients (N = 29), Table 4) was 14 (48) n (%), the “Grade 3 and 4 adverse events: Chills, Grade 3” value (All patients (N = 29), Table 4) was 1 (3) n (%) and the “Grade 3 and 4 adverse events: Chills, Grade 4” value (All patients (N = 29), Table 4) was 0 (0) n (%). For the same compound, the “Grade 3 and 4 adverse events: Chills, Grades 3-4” value (All patients (N = 29), Table 4) was 1 (3) n (%), the “Grade 3 and 4 adverse events: Disease progression, Grade 3” value (All patients (N = 29), Table 4) was 1 (3) n (%) and the “Grade 3 and 4 adverse events: Disease progression, Grade 4” value (All patients (N = 29), Table 4) was 0 (0) n (%). The “Grade 3 and 4 adverse events: Disease progression, Grades 3-4” value (All patients (N = 29), Table 4) was 1 (3) n (%), the “Grade 3 and 4 adverse events: Hyperglycemia, Grade 3” value (All patients (N = 29), Table 4) was 1 (3) n (%) and the “Grade 3 and 4 adverse events: Hyperglycemia, Grade 4” value (All patients (N = 29), Table 4) was 0 (0) n (%). For the same compound, the “Grade 3 and 4 adverse events: Hyperglycemia, Grades 3-4” value (All patients (N = 29), Table 4) was 1 (3) n (%), the “Grade 3 and 4 adverse events: Neutropenia, Grade 3” value (All patients (N = 29), Table 4) was 1 (3) n (%) and the “Grade 3 and 4 adverse events: Neutropenia, Grade 4” value (All patients (N = 29), Table 4) was 0 (0) n (%). For the same compound, the “Grade 3 and 4 adverse events: Neutropenia, Grades 3-4” value (All patients (N = 29), Table 4) was 1 (3) n (%), the “Grade 3 and 4 adverse events: Pain, Grade 3” value (All patients (N = 29), Table 4) was 1 (3) n (%) and the “Grade 3 and 4 adverse events: Pain, Grade 4” value (All patients (N = 29), Table 4) was 0 (0) n (%). The “Grade 3 and 4 adverse events: Pain, Grades 3-4” value (All patients (N = 29), Table 4) was 1 (3) n (%), the “Grade 3 and 4 adverse events: Skin infection, Grade 3” value (All patients (N = 29), Table 4) was 1 (3) n (%) and the “Grade 3 and 4 adverse events: Skin infection, Grade 4” value (All patients (N = 29), Table 4) was 0 (0) n (%). For the same compound, the “Grade 3 and 4 adverse events: Skin infection, Grades 3-4” value (All patients (N = 29), Table 4) was 1 (3) n (%), the “Grade 3 and 4 adverse events: Syncope, Grade 3” value (All patients (N = 29), Table 4) was 1 (3) n (%) and the “Grade 3 and 4 adverse events: Syncope, Grade 4” value (All patients (N = 29), Table 4) was 0 (0) n (%). The “Grade 3 and 4 adverse events: Syncope, Grades 3-4” value (All patients (N = 29), Table 4) was 1 (3) n (%), the “Grade 3 and 4 adverse events: Thrombocytopenia, Grade 3” value (All patients (N = 29), Table 4) was 0 (0) n (%) and the “Adverse event Any, All Grades” value [1] was 29 (100) n (%). The “Adverse event Any, Grade 1” value [1] was 4 (14) n (%), the “Adverse event Any, Grade 2” value [1] was 11 (38) n (%) and the “Adverse event Any, Grade 3” value [1] was 11 (38) n (%). For the same compound, the “Adverse event Any, Grade 4” value [1] was 3 (10) n (%), the “Adverse event Constipation, All Grades” value [1] was 6 (21) n (%) and the “Adverse event Constipation, Grade 1” value [1] was 5 (17) n (%). The “Adverse event Constipation, Grade 2” value [1] was 1 (3) n (%), the “Adverse event Constipation, Grade 3” value [1] was 0 (0) n (%) and the “Adverse event Constipation, Grade 4” value [1] was 0 (0) n (%). For the same compound, the “Adverse event Cough, All Grades” value [1] was 8 (28) n (%), the “Adverse event Cough, Grade 1” value [1] was 8 (28) n (%) and the “Adverse event Cough, Grade 2” value [1] was 0 (0) n (%). The “Adverse event Cough, Grade 3” value [1] was 0 (0) n (%), the “Adverse event Cough, Grade 4” value [1] was 0 (0) n (%) and the “Adverse event Diarrhea, All Grades” value [1] was 10 (35) n (%). The “Adverse event Diarrhea, Grade 1” value [1] was 7 (24) n (%), the “Adverse event Diarrhea, Grade 2” value [1] was 3 (10) n (%) and the “Adverse event Diarrhea, Grade 3” value [1] was 0 (0) n (%). The “Adverse event Diarrhea, Grade 4” value [1] was 0 (0) n (%), the “Adverse event Pyrexia, Grade 1” value [1] was 5 (17) n (%) and the “Adverse event Pyrexia, Grade 2” value [1] was 3 (10) n (%). The “Adverse event Pyrexia, Grade 3” value [1] was 0 (0) n (%), the “Adverse event Pyrexia, Grade 4” value [1] was 0 (0) n (%) and the “Patients who discontinued study treatment due to adverse events” value (Four of the 29 patients) was 14%. For the same compound, the “Patients with grade 2 anemia” value (across all cohorts) was “three”, the Incidence of anemia (across all cohorts, five patients, doses 1.2 to 15 mg/m^2) was 17% and the “Adverse event Dyspnea, All Grades” value (human, in vivo) was 8 (28) n (%). The “Adverse event Dyspnea, Grade 1” value (human, in vivo) was 6 (21) n (%), the “Adverse event Dyspnea, Grade 2” value (human, in vivo) was 0 (0) n (%) and the “Adverse event Dyspnea, Grade 3” value (human, in vivo) was 1 (3) n (%). For the same compound, the “Adverse event Dyspnea, Grade 4” value (human, in vivo) was 1 (3) n (%), the “Adverse event Exertional dyspnea, All Grades” value (human, in vivo) was 6 (21) n (%) and the “Adverse event Exertional dyspnea, Grade 1” value (human, in vivo) was 6 (21) n (%).
